Drawing on patent publication US20130165440A1, “JAK1 Inhibitors” (EXELIXIS, INC., priority 2010, published 2013), this text covers IC50 for 35 compounds.

One may read the IC50 as the concentration that gives 50% inhibition.

The target of the test is T1, recombinant JAK1 enzyme (Homo sapiens, UniProt P23458).
T1 construct: 8 nM of recombinant JAK1 enzyme (Insect expressed: V866-K1155); host or cells: insect cells
T1 sequence (P23458 865-1154 limits assumed): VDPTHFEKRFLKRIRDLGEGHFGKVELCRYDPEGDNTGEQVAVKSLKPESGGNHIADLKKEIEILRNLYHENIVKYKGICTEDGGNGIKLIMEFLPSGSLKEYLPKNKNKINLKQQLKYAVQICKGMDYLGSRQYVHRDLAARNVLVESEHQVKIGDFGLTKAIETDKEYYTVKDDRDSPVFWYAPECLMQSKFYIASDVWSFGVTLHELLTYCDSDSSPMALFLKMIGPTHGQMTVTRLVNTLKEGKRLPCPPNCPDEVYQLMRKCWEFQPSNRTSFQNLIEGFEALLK
The test is described as follows: JAK1 Kinase Assay (luciferase-luciferin-coupled chemiluminescence, ATP consumption). The test is classed as biochemical. The note with it: 8 nM JAK1 (V866-K1155), 30 μM IRS-1 peptide (Y608), 2 μM ATP, 2 hours ambient temperature, KinaseGlo; read-out: JAK1 IRS-1tide Chemilum (IC50). On the procedure: JAK1 Kinase Assay Used to Test Compounds
JAK1 Kinase activity was measured as the percent of ATP consumed following the kinase reaction using luciferase-luciferin-coupled chemiluminescence. The reaction was conducted in white medium binding 384-well microtiter plates. The kinase reaction were initiated by combining test compounds, 8 nM of recombinant JAK1 enzyme (Insect expressed: V866-K1155), 30 μM of IRS-1 peptide (Y608) and 2 μM ATP in buffer containing 20 mM Hepes (pH 7.5), 10 mM MgCl2, 0.01% Brij, 5% glycerol and 1 mM DTT in a 20 μL volume. The reaction mixture was incubated at ambient temperature for 2 hours. Following the kinase reaction, a 20 μL aliquot of KinaseGlo was added to stop the reaction and measure remaining ATP via detection of chemiluminescence using the Envison reader. Total ATP consumption was limited to 25-60%.
On to `CNc1nnc(-c2ccc(-c3nnc(Nc4cc(C(F)(F)F)cc(C(F)(F)F)c4)c4ccccc34)cc2)s1` [Compound 1, N-[3,5-bis(trifluoromethyl)phenyl]-4-{4-[5-(methylamino)-1,3,4-thiadiazol-2-yl]phenyl}phthalazin-1-amine], for which the IC50 was in the range of 2000 to 30000 nM.
In the case of `COC(=O)c1ccc(-c2nnc(Nc3cccc(C(C)(C)C)c3)c3ccccc23)cc1` [Compound 4, methyl 4-(4-{[3-(1,1-dimethylethyl)phenyl]amino}phthalazin-1-yl)benzoate], the half-maximal inhibitory concentration (IC50) is 500 to 1000 nM.
With `O=c1[nH]ccn1-c1ccc(-c2nnc(Nc3cc(C(F)(F)F)cc(C(F)(F)F)c3)c3ccccc23)cc1` [Compound 5, 1-[4-(4-{[3,5-bis(trifluoromethyl)phenyl]amino}phthalazin-1-yl)phenyl]-1,3-dihydro-2H-imidazol-2-one], the concentration for half-maximal inhibition (IC50) was at most 150 nM.
As for `COC(=O)c1ccc(-c2nnc(Nc3cc(NCCCN(C)C)cc(C(F)(F)F)c3)c3ccccc23)cc1` [Compound 8, methyl 4-(4-{[3-{[3-(dimethylamino)propyl]amino}-5-(trifluoromethyl)phenyl]amino}phthalazin-1-yl)benzoate], the half-inhibitory concentration (IC50) lay in the range of 150 to 500 nM.
For `NC(=O)c1ccc(-c2nnc(Nc3cc(C(F)(F)F)cc(C(F)(F)F)c3)c3ccccc23)cc1` [Compound 9, 4-(4-{[3,5-bis(trifluoromethyl)phenyl]amino}phthalazin-1-yl)benzamide], the IC50 was 1000 to 2000 nM.
Next, `COC(=O)c1ccc(-c2nnc(Nc3cc(OCCN(C)C)cc(C(F)(F)F)c3)c3ccccc23)cc1` [Compound 10, methyl 4-(4-{[3-{[2-(dimethylamino)ethyl]oxy}-5-(trifluoromethyl)phenyl]amino}phthalazin-1-yl)benzoate]: 150 to 500 nM.
Next, `CC(=O)c1ccc(-c2nnc(Nc3cc(C(F)(F)F)cc(C(F)(F)F)c3)c3ccccc23)s1` [Compound 12, 1-[5-(4-{[3,5-bis(trifluoromethyl)phenyl]amino}phthalazin-1-yl)-2-thienyl]ethanone]: 2000 to 30000 nM.
Next, `COC(=O)c1ccc(-c2nnc(Nc3cccc(C(F)(F)F)c3)c3cccnc23)cc1` [Compound 13]: 500 to 1000 nM; `COC(=O)c1ccc(-c2nnc(Nc3cc(Cl)cc(C(F)(F)F)c3)c3ccccc23)cc1` [Compound 14, methyl 4-(4-{[3-chloro-5-(trifluoromethyl)phenyl]amino}phthalazin-1-yl)benzoate]: at most 150 nM.
On to `COC(=O)c1ccc(-c2nnc(Nc3cc(C(=O)OC)cc(C(F)(F)F)c3)c3ccccc23)cc1` [Compound 15, methyl 3-[(4-{4-[(methyloxy)carbonyl]phenyl}phthalazin-1-yl)amino]-5-(trifluoromethyl)benzoate], for which the IC50 is 2000 to 30000 nM.
For `COC(=O)c1ccc(-c2nnc(Nc3cccc(Cl)c3)c3ccccc23)cc1` [Compound 16, methyl 4-{4-[(3-chlorophenyl)amino]phthalazin-1-yl}benzoate] the value was 150 to 500 nM; for `COC(=O)c1ccc(-c2nnc(Nc3cc(C(F)(F)F)cc(C(F)(F)F)c3)c3ccccc23)s1` [Compound 17, methyl 5-(4-{[3,5-bis(trifluoromethyl)phenyl]amino}phthalazin-1-yl)thiophene-2-carboxylate], 2000 to 30000 nM; for `O=Cc1ccc(-c2nnc(Nc3cc(C(F)(F)F)cc(C(F)(F)F)c3)c3ccccc23)cc1` [Compound 18, 4-(4-{[3,5-bis(trifluoromethyl)phenyl]amino}phthalazin-1-yl)benzaldehyde], 2000 to 30000 nM.
Next, `CCc1cc(Nc2nnc(-c3ccc(C(=O)OC)cc3)c3ccccc23)cc(C(F)(F)F)c1` [Compound 19, methyl 4-(4-{[3-ethyl-5-(trifluoromethyl)phenyl]amino}phthalazin-1-yl)benzoate]: at most 150 nM; `COC(=O)c1ccc(-c2nnc(Nc3cc(N4CCN(C)CC4)cc(C(F)(F)F)c3)c3ccccc23)cc1` [Compound 20, methyl 4-(4-{[3-(4-methylpiperazin-1-yl)-5-(trifluoromethyl)phenyl]amino}phthalazin-1-yl)benzoate]: 1000 to 2000 nM.
As to `CCc1cccc(Nc2nnc(-c3ccc(C(=O)OC)cc3)c3ccccc23)c1` [Compound 21, methyl 4-{4-[(3-ethylphenyl)amino]phthalazin-1-yl}benzoate], the half-inhibitory concentration (IC50) was in the range of 150 to 500 nM.
Next, `COC(=O)c1ccc(-c2nnc(Nc3cc(CCCN(C)C)cc(C(F)(F)F)c3)c3ccccc23)cc1` [Compound 22, methyl 4-[4-({3-[3-(dimethylamino)propyl]-5-(trifluoromethyl)phenyl}amino)phthalazin-1-yl]benzoate]: at most 150 nM.
Next, `O=C1NCCN1c1ccc(-c2nnc(Nc3cc(C(F)(F)F)cc(C(F)(F)F)c3)c3ccccc23)cc1` [Compound 23, 1-[4-(4-{[3,5-bis(trifluoromethyl)phenyl]amino}phthalazin-1-yl)phenyl]imidazolidin-2-one]: at most 150 nM; `COC(=O)c1ccc(-c2nnc(Nc3ccc(Cl)c(C(F)(F)F)c3)c3ccccc23)cc1` [Compound 24, methyl 4-(4-{[4-chloro-3-(trifluoromethyl)phenyl]amino}phthalazin-1-yl)benzoate]: 500 to 1000 nM; `COC(=O)c1ccc(-c2nnc(Nc3ccc(Cl)cc3)c3ccccc23)cc1` [Compound 26]: 1000 to 2000 nM.
For `O=C1OCc2cc(-c3nnc(Nc4cc(C(F)(F)F)cc(C(F)(F)F)c4)c4ccccc34)ccc21` [Compound 27, 5-(4-{[3,5-bis(trifluoromethyl)phenyl]amino}phthalazin-1-yl)-2-benzofuran-1(3H)-one] the value was 2000 to 30000 nM.
As for `CC(=O)Nc1ccc(-c2nnc(Nc3cc(C(F)(F)F)cc(C(F)(F)F)c3)c3ccccc23)cc1` [Compound 28, N-[4-(4-{[3,5-bis(trifluoromethyl)phenyl]amino}phthalazin-1-yl)phenyl]acetamide], the IC50 lay in the range of 500 to 1000 nM.
Next, `COC(=O)c1ccc(-c2nnc(Nc3cccc(C(F)(F)F)c3)c3cnccc23)cc1` [Compound 29, methyl 4-(4-{[3-(trifluoromethyl)phenyl]amino}pyrido[3,4-d]pyridazin-1-yl)benzoate]: 150 to 500 nM.
Turning to `COC(=O)c1ccc(-c2nnc(Nc3cc(CN(C)C)cc(C(F)(F)F)c3)c3ccccc23)cc1` [Compound 30, methyl 4-[4-({3-[(dimethylamino)methyl]-5-(trifluoromethyl)phenyl}amino)phthalazin-1-yl]benzoate], the 50% inhibitory concentration (IC50) was in the range of 500 to 1000 nM.
As for `COC(=O)c1ccc(-c2nnc(Nc3cc(OC)cc(C(F)(F)F)c3)c3ccccc23)cc1` [Compound 32, methyl 4-(4-{[3-(methyloxy)-5-(trifluoromethyl)phenyl]amino}phthalazin-1-yl)benzoate], the half-maximal inhibitory concentration (IC50) fell in the range of 500 to 1000 nM.
Next, `FC(F)(F)c1cc(Nc2nnc(-c3ccc4cn[nH]c4c3)c3ccccc23)cc(C(F)(F)F)c1` [Compound 33, N-[3,5-bis(trifluoromethyl)phenyl]-4-(1H-indazol-6-yl)phthalazin-1-amine]: at most 150 nM.
For `COC(=O)c1ccc(-c2nnc(Nc3ccc(OC)c(C(F)(F)F)c3)c3ccccc23)cc1` [Compound 34, methyl 4-(4-{[4-(methyloxy)-3-(trifluoromethyl)phenyl]amino}phthalazin-1-yl)benzoate] the value was 500 to 1000 nM; for `COC(=O)c1ccc(-c2nnc(Nc3cc(F)cc(C(F)(F)F)c3)c3ccccc23)cc1` [Compound 35, methyl 4-(4-{[3-fluoro-5-(trifluoromethyl)phenyl]amino}phthalazin-1-yl)benzoate], 150 to 500 nM.
Take `COC(=O)c1ccc(-c2nnc(Nc3cc(NCCN(C)C)cc(C(F)(F)F)c3)c3ccccc23)cc1` [Compound 36, methyl 4-(4-{[3-{[2-(dimethylamino)ethyl]amino}-5-(trifluoromethyl)phenyl]amino}phthalazin-1-yl)benzoate]: the IC50 lay within 150 to 500 nM.
For `Nc1n[nH]c2cc(-c3nnc(Nc4cc(C(F)(F)F)cc(C(F)(F)F)c4)c4ccccc34)ccc12` [Compound 38, 4-(3-amino-1H-indazol-6-yl)-N-[3,5-bis(trifluoromethyl)phenyl]phthalazin-1-amine], the IC50 was at most 150 nM.
For `COC(=O)c1ccc(-c2nnc(Nc3cccc(C(F)(F)F)c3)c3ncccc23)cc1` [Compound 39, methyl 4-(8-{[3-(trifluoromethyl)phenyl]amino}pyrido[2,3-d]pyridazin-5-yl)benzoate] the value was 2000 to 30000 nM; for `O=C(O)c1ccc(-c2nnc(Nc3cc(C(F)(F)F)cc(C(F)(F)F)c3)c3ccccc23)cc1` [Compound 40, 4-(4-{[3,5-bis(trifluoromethyl)phenyl]amino}phthalazin-1-yl)benzoic acid], 2000 to 30000 nM.
Turning to `COC(=O)c1ccc(-c2nnc(Nc3cccc(OC(F)(F)F)c3)c3ccccc23)cc1` [Compound 43, methyl 4-[4-({3-[(trifluoromethyl)oxy]phenyl}amino)phthalazin-1-yl]benzoate], the IC50 fell in the range of 150 to 500 nM.
For `COC(=O)c1ccc(-c2nnc(Nc3cc(Br)cc(C(F)(F)F)c3)c3ccccc23)cc1` [Compound 44, methyl 4(4-{[3-bromo-5-(trifluoromethyl)phenyl]amino}phthalazin-1-yl)benzoate] the value was 150 to 500 nM; for `FC(F)(F)c1cc(Nc2nnc(-c3ccc4nn[nH]c4c3)c3ccccc23)cc(C(F)(F)F)c1` [Compound 45, 4-(1H-1,2,3-benzotriazol-6-yl)-N-[3,5-bis(trifluoromethyl)phenyl]phthalazin-1-amine], 1000 to 2000 nM.
